In patent publication US20040009511A1, “Identification of compounds which stimulate bone formation using a cell-based screening assay targeting BMP signaling” (priority 2002, published 2004):

Experiments:
Type in all cases: cell-based
[1] = tested on: 9×SBE-6×OSE2-OC-luc reporter construct in 2T3 C-17 cells; experiment: Luciferase assay, 9×SBE-6×OSE2-OC-luc reporter stably transfected in 2T3 clone C-17; parameters: Luciferase Activity: unit not given here; settings: for Luciferase Activity / Luciferase Activity (fold increase) / Effect on luciferase activity of the reporter construct / Luciferase Activity, value in parentheses (fold increase): 24 hours; for Maximal effect, fold increase in luciferase activity: over the concentrations tested
Description: (§1) An oligonucleotide containing 9 copies of Smad1 response element (9×SBE) and 6 copies of Cbfa1 response element (6×OSE2) was synthesized in the DNA laboratory at University of Texas Health Science Center at San Antonio. The osteocalcin basal promoter (OC, −155/+1) was amplified by Polymerase Chain Reaction (PCR) using mouse genomic DNA as a template and cloned into pGL3 vector. An 9×SBE-6×OSE2 oligonucleotide was cloned upstream of osteocalcin basal promoter.
(§2) C2C12 and 2T3 cells were plated in 6-well culture plates at densities of 4×10^5 and 2×10^5 cells/well and cultured with DMEM or α minimal essential medium (α MEM) supplemented with 10% FCS for 24 hours. A 9×SBE-6×OSE2-OC-luc-reporter construct (2 μg/well) was co-transfected with pcDNA3 empty vector (0.2 mg/well) in C2C12 and 2T3 cells using lipofactamine plus reagents (Gibco/BRL). Forty eight hours later, G418 (200 μg/ml) was added to the culture plates. Four weeks after G418 selection, the G418 resistant cells were plated in 96-well plates at the density of 1 cell/well and cloned by limiting dilution method.
(§3) C2C12 and 2T3 cells, in which 9×SBE-6×OSE2-OC-luc-reporter construct was stably transfected, were plated in 96-well culture plates at densities of 1×10^4 and 0.5×10^4 cells/well and cultured for 24 hours. The medium was changed to fresh medium supplemented with 2% FCS and different growth factors or hormone were added to culture medium for 24 hours or different compounds were added to culture medium for 2, 6, 12, 24 and 48 hours. The cell lysates were extracted and luciferase activities were determined by luciferase assay kit (Promega, Madison, Wis.) using a Luminometer.
(§4) At the end of the incubation, the cell lysates were extracted using lysis buffer and luciferase activities were measured using a luciferase assay kit (Promega).

[2] = tested on: 9×SBE-6×OSE2-OC-luc reporter construct in C2C12 C-10-62 cells; experiment: Luciferase assay, 9×SBE-6×OSE2-OC-luc reporter stably transfected in C2C12 clone C-10-62; settings: for Maximal effect, fold increase in luciferase activity: over the concentrations tested; for Effect on luciferase activity of the reporter construct: 24 hours
Description: as §1, §2, §3, §4

[3] = tested on: 9×SBE-6×OSE2-OC-luc reporter construct; experiment: Luciferase assay, 9×SBE-6×OSE2-OC-luc reporter construct, cells not specified
From the text: as §1, §3
Further, a reporter construct which contains multiple copies of both Smad1 (SBE) and Cbfa1 (OSE2) response elements (9×SBE-6×OSE2-OC-luc) was made.

[4] = 2-ME 1.25 μM, 2T3 cell clone 17
[5] = 9-cis RA 1.25 μM, 2T3 cell clone 17
[6] = 9-cis RA 2.5 μM, 2T3 cell clone 17
[7] = 9-cis RA 5 μM, 2T3 cell clone 17
[8] = 9-cis RA 10 μM, 2T3 cell clone 17
[9] = All-trans RA 1.25 μM, 2T3 cell clone 17
[10] = All-trans RA 2.5 μM, 2T3 cell clone 17
[11] = All-trans RA 5 μM, 2T3 cell clone 17
[12] = All-trans RA 10 μM, 2T3 cell clone 17
[13] = TN-16 0.039 μM, 2T3 cell clone 17
[14] = TN-16 0.078 μM, 2T3 cell clone 17
[15] = TN-16 0.156 μM, 2T3 cell clone 17
[16] = TN-16 0.3125 μM, 2T3 cell clone 17
[17] = TN-16 0.625 μM, 2T3 cell clone 17
[18] = TN-16 1.25 μM, 2T3 cell clone 17
[19] = TN-16 2.5 μM, 2T3 cell clone 17

## COc1cc2c(cc1O)CC[C@@H]1[C@@H]2CC[C@]2(C)[C@@H](O)CC[C@@H]12 [2-ME, 2-methoxyestradiol, reference compound]
[1]; 2-ME 0.625 μM, 2T3 cell clone 17
  Luciferase Activity: 0.052
[1]; [4]
  Luciferase Activity: 0.059
  Luciferase Activity (fold increase): 1.2 fold
[1]; 2-ME 2.5 μM, 2T3 cell clone 17
  Luciferase Activity: 0.065
  Luciferase Activity (fold increase): 1.3 fold
[1]; 2-ME 5 μM, 2T3 cell clone 17
  Luciferase Activity: 0.102
  Luciferase Activity (fold increase): 2.0 fold
[1]; 2-ME 10 μM, 2T3 cell clone 17
  Luciferase Activity: 0.130
  Luciferase Activity (fold increase): 2.6 fold
[1]; 2T3 C-17 cells
  Effect on luciferase activity of the reporter construct: stimulated the reporter construct in a dose-dependent manner

## CC1=C(/C=C/C(C)=C\C=C\C(C)=C\C(=O)O)C(C)(C)CCC1 [9-cis RA, 9-cis retinoic acid, reference compound]
[1]; 2T3 C-17 cells
  Maximal effect, fold increase in luciferase activity: 5 fold
[1]; [5]
  Luciferase Activity: 0.160
  Luciferase Activity, value in parentheses (fold increase): 3.6 fold
[1]; [6]
  Luciferase Activity: 0.160
  Luciferase Activity, value in parentheses (fold increase): 3.6 fold
[1]; [7]
  Luciferase Activity: 0.164
  Luciferase Activity, value in parentheses (fold increase): 3.6 fold
[1]; [8]
  Luciferase Activity: 0.226
  Luciferase Activity, value in parentheses (fold increase): 5.0 fold
[2]
  Maximal effect, fold increase in luciferase activity: 5 fold

## CC1=C(/C=C/C(C)=C/C=C/C(C)=C/C(=O)O)C(C)(C)CCC1 [All-trans RA, all-trans retinoic acid, reference compound]
[1]; 2T3 C-17 cells
  Maximal effect, fold increase in luciferase activity: 5 fold
[1]; [9]
  Luciferase Activity: 0.113
  Luciferase Activity, value in parentheses (fold increase): 2.5 fold
[1]; [10]
  Luciferase Activity: 0.142
  Luciferase Activity, value in parentheses (fold increase): 3.2 fold
[1]; [11]
  Luciferase Activity: 0.164
  Luciferase Activity, value in parentheses (fold increase): 3.6 fold
[1]; [12]
  Luciferase Activity: 0.219
  Luciferase Activity, value in parentheses (fold increase): 4.9 fold
[2]
  Maximal effect, fold increase in luciferase activity: 5 fold

## CC(Nc1ccccc1)=C1C(=O)NC(Cc2ccccc2)C1=O (centres unmarked) [TN-16, reference compound]
[1]; 2T3 C-17 cells
  Effect on luciferase activity of the reporter construct: stimulated the reporter construct in a dose-dependent manner
  Maximal effect, fold increase in luciferase activity: 5 fold
[1]; [13]
  Luciferase Activity: 0.022
  Luciferase Activity (fold increase): 0.9 fold
[1]; [14]
  Luciferase Activity: 0.037
  Luciferase Activity (fold increase): 1.6 fold
[1]; [15]
  Luciferase Activity: 0.036
  Luciferase Activity (fold increase): 1.6 fold
[1]; [16]
  Luciferase Activity: 0.038
  Luciferase Activity (fold increase): 1.6 fold
[1]; [17]
  Luciferase Activity: 0.057
  Luciferase Activity (fold increase): 2.5 fold
[1]; [18]
  Luciferase Activity: 0.081
  Luciferase Activity (fold increase): 3.5 fold
[1]; [19]
  Luciferase Activity: 0.079
  Luciferase Activity (fold increase): 3.4 fold
[1]; TN-16 5 μM, 2T3 cell clone 17
  Luciferase Activity: 0.111
  Luciferase Activity (fold increase): 4.8 fold
[1]; TN-16 10 μM, 2T3 cell clone 17
  Luciferase Activity: 0.098
  Luciferase Activity (fold increase): 4.2 fold

## TGF-β
[1]; 2T3 C-17 cells
  Luciferase activity normalized to protein content: no significant effect
  Maximal effect, fold increase in luciferase activity: 3 fold
[1]; TGF-β 0.0195 ng/ml, 2T3 C-17 cells
  Luciferase Activity: 0.046
[1]; TGF-β 0.039 ng/ml, 2T3 C-17 cells
  Luciferase Activity: 0.052
[1]; TGF-β 0.078 ng/ml, 2T3 C-17 cells
  Luciferase Activity: 0.053
[1]; TGF-β 0.156 ng/ml, 2T3 C-17 cells
  Luciferase Activity: 0.062
[1]; TGF-β 0.3125 ng/ml, 2T3 C-17 cells
  Luciferase Activity: 0.08
[1]; TGF-β 0.625 ng/ml, 2T3 C-17 cells
  Luciferase Activity: 0.09
[1]; TGF-β 1.25 ng/ml, 2T3 C-17 cells
  Luciferase Activity: 0.102
[1]; TGF-β 2.5 ng/ml, 2T3 C-17 cells
  Luciferase Activity: 0.156
[1]; TGF-β 5 ng/ml, 2T3 C-17 cells
  Luciferase Activity: 0.077
[1]; TGF-β 10 ng/ml, 2T3 C-17 cells
  Luciferase Activity: 0.081
[2]
  Effect on luciferase activity of the reporter construct: no significant effects

## acid FGF: Acidic Fibroblast Growth Factor
[1]; acid FGF 0.195 ng/ml, 2T3 C-17 cells
  Luciferase Activity: 0.06
[1]; acid FGF 0.39 ng/ml, 2T3 C-17 cells
  Luciferase Activity: 0.057
[1]; acid FGF 0.78 ng/ml, 2T3 C-17 cells
  Luciferase Activity: 0.058
[1]; acid FGF 1.56 ng/ml, 2T3 C-17 cells
  Luciferase Activity: 0.051
[1]; acid FGF 3.125 ng/ml, 2T3 C-17 cells
  Luciferase Activity: 0.052
[1]; acid FGF 6.25 ng/ml, 2T3 C-17 cells
  Luciferase Activity: 0.054
[1]; acid FGF 12.5 ng/ml, 2T3 C-17 cells
  Luciferase Activity: 0.051
[1]; acid FGF 25 ng/ml, 2T3 C-17 cells
  Luciferase Activity: 0.052
[1]; acid FGF 50 ng/ml, 2T3 C-17 cells
  Luciferase Activity: 0.058
[1]; acid FGF 100 ng/ml, 2T3 C-17 cells
  Luciferase Activity: 0.075
[2]
  Effect on luciferase activity of the reporter construct: no significant effects

B1: PTH: Parathyroid Hormone (protein, UniProt P01270 32-115, looked up)
Parathyroid hormone: SVSEIQLMHNLGKHLNSMERVEWLRKKLQDVHNFVALGAPLAPRDAGSQRPRKKEDNVLVESHEKSLGEADKADVNVLTKAKSQ
modifications: Parathyroid hormone
[1]; PTH 0.195 ng/ml, 2T3 C-17 cells
  Luciferase Activity: 0.05
[1]; PTH 0.39 ng/ml, 2T3 C-17 cells
  Luciferase Activity: 0.053
[1]; PTH 0.78 ng/ml, 2T3 C-17 cells
  Luciferase Activity: 0.047
[1]; PTH 1.56 ng/ml, 2T3 C-17 cells
  Luciferase Activity: 0.05
[1]; PTH 3.125 ng/ml, 2T3 C-17 cells
  Luciferase Activity: 0.05
[1]; PTH 6.25 ng/ml, 2T3 C-17 cells
  Luciferase Activity: 0.048
[1]; PTH 12.5 ng/ml, 2T3 C-17 cells
  Luciferase Activity: 0.051
[1]; PTH 25 ng/ml, 2T3 C-17 cells
  Luciferase Activity: 0.053
[1]; PTH 50 ng/ml, 2T3 C-17 cells
  Luciferase Activity: 0.053
[1]; PTH 100 ng/ml, 2T3 C-17 cells
  Luciferase Activity: 0.055

B2: noggin: BMP binding protein noggin (protein, UniProt Q13253 28-232, looked up)
Noggin: QHYLHIRPAPSDNLPLVDLIEHPDPIFDPKEKDLNETLLRSLLGGHYDPGFMATSPPEDRPGGGGGAAGGAEDLAELDQLLRQRPSGAMPSEIKGLEFSEGLAQGKKQRLSKKLRRKLQMWLWSQTFCPVLYAWNDLGSRFWPRYVKVGSCFSKRSCSVPEGMVCKPSKSVHLTVLRWRCQRRGGQRCGWIPIQYPIISECKCSC
[3]; 500 ng/ml of noggin, 100 ng/ml of BMP-2
  Effect on BMP-2-induced reporter activity: completely blocked
[3]; dose-response
  Inhibition of BMP-2-induced luciferase activity: inhibit BMP-2-induced luciferase activity in a dose-dependent manner
